We go through six compounds from patent US7119075B2, “Use of herbal agents for potentiation of bioefficacy of anti infectives” (priority 2003, dated 2006).

Common to all, as to type: cell-based
One experiment concerns Bacillus cereus RRL 02. In words: Inhibitory effect of bioenhancers alone.
For experiment [1], the system named is Mycobacterium avium ATCC 49601. In words: Inhibitory effect of bioenhancers alone.
For experiment [2], the system named is Mycobacterium intracelluare ATCC 13950. In words: Inhibitory effect of bioenhancers alone.
The subject of experiment [3] is Klebsiella pneumoniae ATCC 75388. In words: Inhibitory effect of bioenhancers alone.
Experiment [4] has as its system Mycobacterium tuberculosis 615. The experiment in a line: Inhibitory effect of bioenhancers alone.
Experiment [5] has as its system Mycobacterium tuberculosis H37Rv. The experiment in a line: Inhibitory effect of bioenhancers alone.
Experiment [6] concerns Candida tropicalis ATCC 750. The experiment in a line: Inhibitory effect of bioenhancers alone.
Experiment [7] deals with Methicillin Resistant Staphylococcus aureus (MRSA). The experiment in a line: Inhibitory effect of bioenhancers alone.
Another experiment deals with Candida krusei ATCC 6258. The experiment in a line: Inhibitory effect of bioenhancers alone.
In the next experiment the test system is Salmonella typhi AIIMS 2. In words: Inhibitory effect of bioenhancers alone.
Experiment [8] deals with Staphylococcus aureus ATCC 29313. In words: Inhibitory effect of bioenhancers alone.
Experiment [9] relates to Staphylococcus hemolyticus ATCC 29978. In words: Inhibitory effect of bioenhancers alone.
Experiment [10] concerns Escherichia coli ATCC 25922. In words: Inhibitory effect of bioenhancers alone.
In experiment [11] the test system is Staphylococcus epidermidis ATCC 12228. In words: Inhibitory effect of bioenhancers alone.
Experiment [12] deals with Aspergillus fumigatus SI-1. In words: Inhibitory effect of bioenhancers alone.
The test system of experiment [13] is Aspergillus flavus MTCC 1973. In words: Inhibitory effect of bioenhancers alone.
Experiment [14] deals with Pseudomonas aeruginosa ATCC 27583. In words: Inhibitory effect of bioenhancers alone.
The next experiment deals with M. tuberculosis. The experiment in a line: MIC of drugs alone and with bioenhancer (Table 7). Particulars: Mycobacterium tuberculosis, Drug alone.
In another experiment the test system is Gram positive bacteria. In words: organism not typed. Particulars: read-out: MIC Drug alone.

≈ marks a conversion by molar mass, not a printed value.

Regarding “3′,5-Dihydroxy flavone 7-O-β-D-galacturonide-4′-O-β-D-glucopyranoside [pure molecule of Cuminum cyminum]”, the inhibitory effect entry with Bacillus cereus RRL 02 (conc. 0.2 μg/ml), in the experiment on Bacillus cereus RRL 02 (conc. 0.8 μg/ml), in the experiment on Bacillus cereus RRL 02 (conc. 3.12 μg/ml), in the experiment with Bacillus cereus RRL 02 (conc. 12.5 μg/ml), in the experiment on Bacillus cereus RRL 02 (conc. 50 μg/ml) and with Bacillus cereus RRL 02 (conc. 100 μg/ml) was “++++ (No inhibition)” each time. The inhibitory effect result in experiment [1] (conc. 0.2 μg/ml), in experiment [1] (conc. 0.8 μg/ml), in experiment [1] (conc. 3.12 μg/ml), in experiment [1] (conc. 12.5 μg/ml), in experiment [1] (conc. 50 μg/ml) and in experiment [1] (conc. 100 μg/ml) was “++++ (No inhibition)” each time. In addition, the inhibitory effect result in experiment [2] (conc. 0.2 μg/ml), in experiment [2] (conc. 0.8 μg/ml), in experiment [2] (conc. 3.12 μg/ml), in [2] (conc. 12.5 μg/ml), in [2] (conc. 50 μg/ml) and in experiment [2] (conc. 100 μg/ml) was “++++ (No inhibition)” each time. The inhibitory effect entry in [3] (conc. 0.2 μg/ml), in [3] (conc. 0.8 μg/ml), in experiment [3] (conc. 3.12 μg/ml), in [3] (conc. 12.5 μg/ml), in experiment [3] (conc. 50 μg/ml) and in [3] (conc. 100 μg/ml) was “++++ (No inhibition)” each time. Further, the inhibitory effect entry in [4] (conc. 0.2 μg/ml), in experiment [4] (conc. 0.8 μg/ml), in experiment [4] (conc. 3.12 μg/ml), in experiment [4] (conc. 12.5 μg/ml), in [4] (conc. 50 μg/ml) and in experiment [4] (conc. 100 μg/ml) was “++++ (No inhibition)” in each case. Moreover, the inhibitory effect entry in [5] (conc. 0.2 μg/ml), in [5] (conc. 0.8 μg/ml), in [5] (conc. 3.12 μg/ml), in experiment [5] (conc. 12.5 μg/ml), in experiment [5] (conc. 50 μg/ml) and in experiment [5] (conc. 100 μg/ml) was “++++ (No inhibition)” in each case. Moreover, the inhibitory effect result in experiment [6] (conc. 0.2 μg/ml), in experiment [6] (conc. 0.8 μg/ml), in experiment [6] (conc. 3.12 μg/ml), in experiment [6] (conc. 12.5 μg/ml), in experiment [6] (conc. 50 μg/ml) and in experiment [6] (conc. 100 μg/ml) was “++++ (No inhibition)” each time. Also, the inhibitory effect result in [7] (conc. 0.2 μg/ml), in experiment [7] (conc. 0.8 μg/ml), in [7] (conc. 3.12 μg/ml), in [7] (conc. 12.5 μg/ml), in experiment [7] (conc. 50 μg/ml) and in experiment [7] (conc. 100 μg/ml) was “++++ (No inhibition)” each time. Besides, the inhibitory effect entry with Candida krusei ATCC 6258 (conc. 0.2 μg/ml), in the experiment with Candida krusei ATCC 6258 (conc. 0.8 μg/ml), with Candida krusei ATCC 6258 (conc. 3.12 μg/ml), in the experiment with Candida krusei ATCC 6258 (conc. 12.5 μg/ml), in the experiment on Candida krusei ATCC 6258 (conc. 50 μg/ml) and in the experiment on Candida krusei ATCC 6258 (conc. 100 μg/ml) was “++++ (No inhibition)” in each case. Besides, the inhibitory effect entry with Salmonella typhi AIIMS 2 (conc. 0.2 μg/ml), in the experiment on Salmonella typhi AIIMS 2 (conc. 0.8 μg/ml), in the experiment on Salmonella typhi AIIMS 2 (conc. 3.12 μg/ml), in the experiment with Salmonella typhi AIIMS 2 (conc. 12.5 μg/ml), in the experiment with Salmonella typhi AIIMS 2 (conc. 50 μg/ml) and in the experiment on Salmonella typhi AIIMS 2 (conc. 100 μg/ml) was “++++ (No inhibition)” in each case. In addition, the inhibitory effect entry in [8] (conc. 0.2 μg/ml), in experiment [8] (conc. 0.8 μg/ml), in experiment [8] (conc. 3.12 μg/ml), in experiment [8] (conc. 12.5 μg/ml), in [8] (conc. 50 μg/ml) and in experiment [8] (conc. 100 μg/ml) was “++++ (No inhibition)” each time. For the same compound, the inhibitory effect entry in [9] (conc. 0.2 μg/ml), in experiment [9] (conc. 0.8 μg/ml), in experiment [9] (conc. 3.12 μg/ml), in [9] (conc. 12.5 μg/ml), in experiment [9] (conc. 50 μg/ml) and in experiment [9] (conc. 100 μg/ml) was “++++ (No inhibition)” in each case. Also, the inhibitory effect entry in [10] (conc. 0.2 μg/ml), in experiment [10] (conc. 0.8 μg/ml), in experiment [10] (conc. 3.12 μg/ml), in experiment [10] (conc. 12.5 μg/ml), in experiment [10] (conc. 50 μg/ml) and in [10] (conc. 100 μg/ml) was “++++ (No inhibition)” throughout. Also, the inhibitory effect result in experiment [11] (conc. 0.2 μg/ml), in experiment [11] (conc. 0.8 μg/ml), in experiment [11] (conc. 3.12 μg/ml), in experiment [11] (conc. 12.5 μg/ml), in [11] (conc. 50 μg/ml) and in [11] (conc. 100 μg/ml) was “++++ (No inhibition)” throughout. Also, the inhibitory effect result in [12] (conc. 0.2 μg/ml), in experiment [12] (conc. 0.8 μg/ml), in [12] (conc. 3.12 μg/ml), in [12] (conc. 12.5 μg/ml), in experiment [12] (conc. 50 μg/ml) and in experiment [12] (conc. 100 μg/ml) was “++++ (No inhibition)” throughout. The inhibitory effect result in [13] (conc. 0.2 μg/ml), in [13] (conc. 0.8 μg/ml), in experiment [13] (conc. 3.12 μg/ml), in experiment [13] (conc. 12.5 μg/ml), in experiment [13] (conc. 50 μg/ml) and in experiment [13] (conc. 100 μg/ml) was “++++ (No inhibition)” each time. The inhibitory effect entry in experiment [14] (conc. 0.2 μg/ml), in experiment [14] (conc. 0.8 μg/ml), in experiment [14] (conc. 3.12 μg/ml), in experiment [14] (conc. 12.5 μg/ml), in experiment [14] (conc. 50 μg/ml) and in experiment [14] (conc. 100 μg/ml) was “++++ (No inhibition)” each time.
In general, MIC refers to the lowest concentration that inhibits growth of the organism. Take `NC(=O)c1cnccn1` [Pyrazinamide]: the MIC with M. tuberculosis was in the range of 6 to 60 µg/mL.
On to `CN[C@H](CC(C)C)C(=O)N[C@H]1C(=O)N[C@@H](CC(N)=O)C(=O)N[C@H]2C(=O)N[C@H]3C(=O)N[C@H](C(=O)N[C@H](C(=O)O)c4cc(O)cc(O)c4-c4cc3ccc4O)[C@H](O)c3ccc(c(Cl)c3)Oc3cc2cc(c3O[C@@H]2O[C@H](CO)[C@@H](O)[C@H](O)[C@H]2O[C@H]2C[C@](C)(N)[C@H](O)[C@H](C)O2)Oc2ccc(cc2Cl)[C@H]1O` [Vancomycin], for which, in the experiment with Gram positive bacteria, the MIC was 0.03 to 8 µg/mL (≈ 0.0207 to 5.52 µM).
Regarding `CC[C@@H](CO)NCCN[C@@H](CC)CO` [Ethambutol], the MIC with M. tuberculosis is 1 to 5 µg/mL.
The same measure, in the same setting: the figure for `NNC(=O)c1ccncc1` [Isoniazid] is 0.12 to 32 µg/mL.
With `CO[C@H]1/C=C/O[C@@]2(C)Oc3c(C)c(O)c4c(O)c(c(/C=N/N5CCN(C)CC5)c(O)c4c3C2=O)NC(=O)/C(C)=C\C=C\[C@H](C)[C@H](O)[C@@H](C)[C@@H](O)[C@@H](C)[C@H](OC(C)=O)[C@@H]1C` [Rifampicin], in the experiment with M. tuberculosis, the MIC lay in the range of 0.06 to 0.5 µg/mL.
